Measurements published in patent US5700639A, “Method for the detection of metabolically labelled DNA” (Boehringer Mannheim GmbH, priority 1993, dated 1997).

Tests used:
HL60 cells [1] = assay: Detection of metabolically labelled DNA fragments in apoptotic cells (3 hours incubation); assay type: cell-based; details: 200 ng/ml camptothecin, 37° C.
Description: (§1) The cells to be examined (e.g. HL60 cells, ATCC CCL 240) are firstly metabolically labelled by incubation with 0.01 mmol/l bromodeoxyuridine for 18 hours at 37° C. After removing the excess bromodeoxyuridine that is not incorporated into DNA by washing with culture medium, the cells (200 μl in each case, see Table 1 for cell number) are incubated for 4 hours at 37° C. with 2 μg/ml camptothecin (Sigma, Munich) in a microtitre plate. Afterwards 20 μl 10-fold concentrated lysis buffer (PBS/50 mmol/l EDTA/2 % Tween 20) is added to each preparation for the lysis, the microtitre plate is centrifuged and 100 μl supernatant is taken from each well for the test (PBS=137 mmol/l NaCl; 2.7 mmol/l KCl; 8 mmol/l Na2 HPO4 and 1.5 mmol/l KH2 PO4).
In order to detect the metabolically labelled DNA, a further microtitre plate is coated with an antibody against DNA (5 μg/ml, Boehringer Mannheim GmbH, Ident. No. 1525760) in 100 mmol/l NaCO3 buffer pH 9.6. Subsequently the metabolically labelled DNA is bound to the wall antibody by addition of 100 μl supernatant (see above) per well and incubation for 90 minutes at room temperature. After washing with PBS, the remaining liquid is removed from the wells of the microtitre plate by for example knocking. […]

HL60 cells [2] = assay: Detection of metabolically labelled DNA fragments in the cytoplasm of apoptotic cells (4 hours incubation); assay type: cell-based; details: for A (405 nm), metabolically labelled DNA fragments in the cytoplasm: 37° C.
Description: as §1
In order to detect the metabolically labelled DNA, a further microtitre plate is coated with an antibody against DNA (5 μg/ml, Boehringer Mannheim GmbH, Ident. No. 1525760) in 100 mmol/l NaCO3 buffer pH 9.6. Subsequently the metabolically labelled DNA is bound to the wall antibody by addition of 100 μl supernatant (see above) per well and incubation for 90 minutes at room temperature. After washing with PBS, the remaining liquid is removed from the wells of the microtitre plate by for example knocking. Afterwards the bound double-stranded DNA is denatured or partially degraded by microwave treatment (5 min. 650 watts, AEG Micromat 275Z) or alternatively by addition of 100 μl (corresponding to 1 unit per well of the microtitre plate) exonuclease III (Boehringer Mannheim GmbH, Catalogue No. 779717). The preparation in which the DNA has been denatured by microwave treatment is subsequently cooled for 10 minutes at 8° C. in a refrigerator. The preparation treated with exonuclease III is subsequently washed three times with PBS.
HL60 cells (ATCC CCL 240) were firstly metabolically labelled with bromodeoxyuridine as stated in example 1. After washing out excess bromodeoxyuridine, the cells are incubated in a microtitre plate at 37° C. for 3 or 4 hours with various concentrations of camptothecin (5000 to 0 ng/ml). Subsequently the microtitre plate is centrifuged, an aliquot of the cell culture supernatant (100 μl/well) is taken for the detection of metabolically labelled DNA in the cell culture supernatant according to example 2 and the cells remaining in the microtitre plate are lysed by addition of 100 μl/well 2-fold concentrated lysis buffer (PBS/10 mmol/l EDTA/0.4% Tween 20). The detection of the metabolically labelled DNA in the lysate obtained in this way is then carried out as described in example 1.

CC[C@@]1(O)C(=O)OCc2c1cc1n(c2=O)Cc2cc3ccccc3nc2-1 [camptothecin]
A (405 nm), metabolically labelled DNA, cell culture supernatant (HL60 cells [1]; cell culture supernatant (according to example 2)): 0.020 | A (405 nm), metabolically labelled DNA, cytoplasm (lysate after detergent treatment) (HL60 cells [1]; cytoplasm (lysate after detergent treatment)): 0.770 | A (405 nm), metabolically labelled DNA fragments in the cytoplasm (HL60 cells [2]; 1.6 ng/ml camptothecin): 0.295 | A (405 nm), metabolically labelled DNA fragments in the cytoplasm (HL60 cells [2]; 8 ng/ml camptothecin): 0.342 | A (405 nm), metabolically labelled DNA fragments in the cytoplasm (HL60 cells [2]; 40 ng/ml camptothecin): 0.625 | A (405 nm), metabolically labelled DNA fragments in the cytoplasm (HL60 cells [2]; 200 ng/ml camptothecin): 1.006 | A (405 nm), metabolically labelled DNA fragments in the cytoplasm (HL60 cells [2]; 1000 ng/ml camptothecin): 1.457 | A (405 nm), metabolically labelled DNA fragments in the cytoplasm (HL60 cells [2]; 5000 ng/ml camptothecin): 1.677 | amount of cytoplasmic, metabolically labelled DNA fragments (dose dependence) (HL60 cells [2]; camptothecin 5000 to 0 ng/ml): correlates with the amount of camptothecin
